The results in this text go back to ChEMBL document CHEMBL1201862, “PubChem BioAssay data set” (2004).

Test systems include NCI-H23; HCT-116; HT-29; K562; DU-145; SNB-19; 786-0; T47D; HOP-92; A498; KM12; HCT-15; SF-295; UACC-62; NCI/ADR-RES; LOX IMVI; HCC 2998; SR; NCI-H226; CCRF-CEM.
Holding throughout (assay): NCI-60 cell line screen, 48 h

Molecules are shown by their SMILES.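 Values below derive from 48-hour exposures of cells grown in 96-well plates, with endpoints linearly interpolated between the two concentrations bracketing the appropriate inhibition level. GI50: concentration for 50% inhibition of growth.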 The source made the active and inactive calls. No stated cut-off is given here; in the data, active = GI50 up to about 1.1 µM and inactive = higher.

As to `Cc1cc(OCC(=O)O)c(Cl)cc1Cl`, the GI50 with NCI-H23, with HCT-116, in the assay on HT-29, in the assay on K562, in the assay on DU-145 and in the assay with SNB-19 was > 100 µM (inactive) each time. Besides, the GI50 in the assay with 786-0 was > 100 µM (inactive); in the assay with T47D it was > 100 µM (inactive); in the assay with HOP-92 it was > 100 µM (inactive); in the assay on A498, > 100 µM (inactive); with KM12, > 100 µM (inactive); in the assay with HCT-15, greater than 100 µM. The GI50 in the assay with SF-295, in the assay on UACC-62, with NCI/ADR-RES, with LOX IMVI, with HCC 2998 and in the assay on SR was > 100 µM (inactive) in each case. Moreover, the GI50 with NCI-H226 is > 100 µM (inactive).
For the compound `COc1cc(OC)c2c(O)c3c(cc2c1)CC(C)(C)CC3=O`, the GI50 in the assay on NCI-H23 was > 100 µM (inactive); in the assay with HCT-116 it was > 100 µM (inactive); with HT-29 it was 5.96 µM (inactive); with DU-145, > 100 µM (inactive); in the assay with SNB-19, > 100 µM (inactive); with 786-0, > 67.3 µM (inactive). For the same compound, the GI50 was > 100 µM (inactive) in the assay on T47D; > 100 µM (inactive) with HOP-92; > 100 µM (inactive) in the assay with A498; > 92.3 µM (inactive) with KM12; greater than 100 µM in the assay on HCT-15; > 72.6 µM (inactive) with SF-295. Further, the GI50 in the assay with CCRF-CEM was > 63.1 µM (inactive); in the assay with UACC-62 it was 90.6 µM (inactive); in the assay with NCI/ADR-RES, > 100 µM (inactive); with LOX IMVI, > 100 µM (inactive); in the assay with HCC 2998, > 100 µM (inactive); in the assay with SR it was > 26.7 µM (inactive). The GI50 in the assay on NCI-H226 was > 100 µM (inactive).
On to `Oc1c(Cl)cc2cc1-c1cc(cc(Cl)c1O)CCc1c(cc(Cl)c(O)c1Cl)-c1cc(Cl)c(c(Cl)c1O)/C=C\2`, for which the GI50 in the assay with NCI-H23 is 13.3 µM (inactive); with HCT-116, 8.11 µM (inactive); in the assay on HT-29, 11.4 µM (inactive); in the assay with K562, > 50 µM (inactive); with DU-145 it was 9.18 µM (inactive); in the assay on SNB-19, 11.6 µM (inactive). Besides, the GI50 was 8.36 µM (inactive) in the assay on 786-0; 8.41 µM (inactive) with T47D; 16.8 µM (inactive) in the assay with HOP-92; 14.3 µM (inactive) in the assay with A498; 7.76 µM (inactive) in the assay on KM12; 7.96 µM in the assay with HCT-15. Moreover, the GI50 in the assay on CCRF-CEM was 3.56 µM (inactive); in the assay on UACC-62, 8.69 µM (inactive); in the assay on NCI/ADR-RES, 13.7 µM (inactive); with LOX IMVI it was 9.44 µM (inactive); in the assay on HCC 2998, 6.98 µM (inactive); in the assay with SR, 3.91 µM (inactive). The GI50 with NCI-H226 was 11.5 µM (inactive).
Regarding `COc1ccc(COCCOCc2nc(C#N)c(N)o2)cc1`, the GI50 in the assay on NCI-H23, with HCT-116, in the assay with HT-29, in the assay on K562, in the assay with DU-145 and in the assay on 786-0 was > 100 µM (inactive) each time. Moreover, the GI50 in the assay with T47D is > 100 µM (inactive); with HOP-92, > 100 µM (inactive); in the assay with A498 it was > 100 µM (inactive); in the assay with KM12 it was > 100 µM (inactive); in the assay with HCT-15, greater than 100 µM; in the assay on SF-295, > 100 µM (inactive). Moreover, the GI50 in the assay with CCRF-CEM is 29 µM (inactive); in the assay with UACC-62, > 100 µM (inactive); with NCI/ADR-RES, > 100 µM (inactive); in the assay on LOX IMVI, > 100 µM (inactive); in the assay with HCC 2998, > 100 µM (inactive); in the assay on SR it was > 100 µM (inactive). Also, the GI50 in the assay with NCI-H226 was > 100 µM (inactive).
Consider `O=C1Cc2c([nH]c3ccccc23)C2(CC3CCCCN13)OCCO2` (configuration not stated), for which the GI50 with NCI-H23, in the assay on HCT-116, with HT-29, in the assay with DU-145, in the assay on SNB-19 and in the assay on 786-0 was > 100 µM (inactive) in each case. The GI50 with T47D is > 100 µM (inactive); with HOP-92 it was 34.2 µM (inactive); with A498 it was > 100 µM (inactive); with KM12, > 100 µM (inactive); with HCT-15 it was greater than 100 µM; with SF-295, > 100 µM (inactive). Moreover, the GI50 in the assay on CCRF-CEM is 90.4 µM (inactive); in the assay with UACC-62 it was 76.9 µM (inactive); with NCI/ADR-RES, > 100 µM (inactive); in the assay with HCC 2998, 90.6 µM (inactive); in the assay on SR, > 100 µM (inactive); in the assay with NCI-H226 it was > 100 µM (inactive).
Turning to `CC(=O)OCC1OC(n2c(Br)nc3c2c(=O)n(C)c(=O)n3C)C(OC(C)=O)C1OC(C)=O` (configuration not stated), the GI50 in the assay on NCI-H23 is 77.3 µM (inactive); in the assay with HCT-116, 35.1 µM (inactive); in the assay with HT-29, 43.8 µM (inactive); in the assay with K562 it was 53.3 µM (inactive); in the assay with DU-145 it was 38.2 µM (inactive); in the assay with SNB-19 it was 74.8 µM (inactive). The GI50 in the assay on 786-0 is 89.9 µM (inactive); in the assay with T47D, > 100 µM (inactive); with HOP-92 it was 83 µM (inactive); in the assay on A498 it was 43 µM (inactive); in the assay on KM12, 64.9 µM (inactive); with HCT-15 it was greater than 100 µM. The GI50 in the assay with SF-295 is > 100 µM (inactive); with UACC-62, 67.6 µM (inactive); with NCI/ADR-RES it was > 100 µM (inactive); with LOX IMVI it was 43.2 µM (inactive); in the assay on HCC 2998, > 100 µM (inactive); with SR it was 19.9 µM (inactive). Also, in the assay on NCI-H226, the GI50 was 71.6 µM (inactive).
For `N=c1oc2c(Br)cc(Br)cc2cc1C(=O)Nc1ccccn1`, the GI50 in the assay on NCI-H23 was 69.2 µM (inactive); in the assay on HCT-116, 38.3 µM (inactive); in the assay on HT-29, 44.1 µM (inactive); in the assay with K562, > 100 µM (inactive); with DU-145, 81.5 µM (inactive); with SNB-19 it was > 100 µM (inactive). Further, the GI50 in the assay on 786-0 is 36.5 µM (inactive); in the assay with T47D it was 38.8 µM (inactive); in the assay with HOP-92, > 100 µM (inactive); in the assay with A498 it was > 100 µM (inactive); with KM12, 56.5 µM (inactive); with HCT-15, 38.9 µM. Also, the GI50 in the assay on CCRF-CEM is 41.2 µM (inactive); in the assay with UACC-62, 74.8 µM (inactive); with NCI/ADR-RES it was 61.4 µM (inactive); with LOX IMVI it was > 100 µM (inactive); in the assay on HCC 2998 it was > 100 µM (inactive); in the assay on SR, 91 µM (inactive). The GI50 in the assay with NCI-H226 was 84.9 µM (inactive).
As to `CCOC(=O)C(C)c1nc2cc(N3CCOCC3)c(F)cc2[nH]c1=O` (configuration not stated), the GI50 in the assay on NCI-H23, in the assay on HCT-116, with HT-29, in the assay with K562, with DU-145 and with SNB-19 was > 100 µM (inactive) in each case. Further, the GI50 in the assay on 786-0 was > 100 µM (inactive); in the assay with T47D, > 100 µM (inactive); in the assay on HOP-92 it was > 100 µM (inactive); with A498, > 100 µM (inactive); in the assay on KM12 it was > 100 µM (inactive); with HCT-15, greater than 100 µM. In addition, the GI50 in the assay with SF-295, in the assay with CCRF-CEM, in the assay on UACC-62, with NCI/ADR-RES, in the assay with HCC 2998 and in the assay with SR was > 100 µM (inactive) in each case. Also, the GI50 in the assay on NCI-H226 was > 100 µM (inactive).
In the case of `O=C1CCC2(CC1CCSc1ccccc1)OCCO2` (configuration not stated), the GI50 in the assay with NCI-H23, in the assay on HT-29, in the assay on K562, with DU-145, in the assay on SNB-19 and in the assay with 786-0 was > 100 µM (inactive) in each case. Also, the GI50 is > 100 µM (inactive) with T47D; > 100 µM (inactive) in the assay with HOP-92; > 100 µM (inactive) with A498; > 100 µM (inactive) in the assay on KM12; greater than 100 µM in the assay on HCT-15; > 100 µM (inactive) with SF-295. Besides, the GI50 with CCRF-CEM is > 100 µM (inactive); in the assay on UACC-62, > 100 µM (inactive); in the assay on NCI/ADR-RES, > 100 µM (inactive); in the assay with LOX IMVI, 98.9 µM (inactive); in the assay with HCC 2998 it was > 100 µM (inactive); with SR it was > 100 µM (inactive). The GI50 with NCI-H226 was > 100 µM (inactive).
For the compound `CCOC(=O)c1nc2cc(C(F)(F)F)ccc2nc1Oc1ccc(C#N)cc1`, the GI50 in the assay with HCT-116 is 16.8 µM (inactive); with K562 it was 70.6 µM (inactive); in the assay on DU-145, > 100 µM (inactive); in the assay on SNB-19 it was > 100 µM (inactive); with 786-0, > 100 µM (inactive); in the assay with T47D, 55.7 µM (inactive). For the same compound, the GI50 in the assay with HOP-92 was > 100 µM (inactive); with A498 it was 69.8 µM (inactive); in the assay with KM12 it was > 100 µM (inactive); in the assay on HCT-15 it was greater than 100 µM; in the assay on SF-295, > 100 µM (inactive); with CCRF-CEM, 70 µM (inactive). Besides, the GI50 with UACC-62 was > 100 µM (inactive); in the assay on NCI/ADR-RES, > 100 µM (inactive); in the assay with LOX IMVI it was 71.8 µM (inactive); in the assay with HCC 2998, 80 µM (inactive); with SR, 60.7 µM (inactive); with NCI-H226, > 100 µM (inactive).
Consider `CC(O)C(O)C(O)C(/C=N\Nc1ccccc1)=N/Nc1ccccc1` (configuration not stated), for which the GI50 is 11.9 µM (inactive) in the assay on NCI-H23; 15.3 µM (inactive) in the assay on HCT-116; 15.9 µM (inactive) in the assay with HT-29; 6.78 µM (inactive) in the assay on K562; 15.1 µM (inactive) with DU-145; 15.7 µM (inactive) with SNB-19. Also, the GI50 with 786-0 was 14.2 µM (inactive); in the assay on T47D, 6.21 µM (inactive); in the assay with HOP-92, 14.7 µM (inactive); in the assay with A498 it was 9.02 µM (inactive); with KM12, 4.7 µM (inactive); in the assay on HCT-15, 12.4 µM. For the same compound, the GI50 was 11.6 µM (inactive) with SF-295; 18.5 µM (inactive) in the assay on CCRF-CEM; 10 µM (inactive) in the assay on UACC-62; 11.2 µM (inactive) in the assay with NCI/ADR-RES; 4.58 µM (inactive) in the assay on LOX IMVI; 10.8 µM (inactive) with HCC 2998. The GI50 in the assay with SR was 17.3 µM (inactive).
